Source: US9695154B2, “Heteroaryl inhibitors of sumo activating enzyme” (MILLENNIUM PHARMACEUTICALS, INC., priority 2013, dated 2017)

Target: T1, recombinant human SAE enzyme (Homo sapiens, UniProt Q9UBT2)
T1 sequence (Q9UBT2 1-640): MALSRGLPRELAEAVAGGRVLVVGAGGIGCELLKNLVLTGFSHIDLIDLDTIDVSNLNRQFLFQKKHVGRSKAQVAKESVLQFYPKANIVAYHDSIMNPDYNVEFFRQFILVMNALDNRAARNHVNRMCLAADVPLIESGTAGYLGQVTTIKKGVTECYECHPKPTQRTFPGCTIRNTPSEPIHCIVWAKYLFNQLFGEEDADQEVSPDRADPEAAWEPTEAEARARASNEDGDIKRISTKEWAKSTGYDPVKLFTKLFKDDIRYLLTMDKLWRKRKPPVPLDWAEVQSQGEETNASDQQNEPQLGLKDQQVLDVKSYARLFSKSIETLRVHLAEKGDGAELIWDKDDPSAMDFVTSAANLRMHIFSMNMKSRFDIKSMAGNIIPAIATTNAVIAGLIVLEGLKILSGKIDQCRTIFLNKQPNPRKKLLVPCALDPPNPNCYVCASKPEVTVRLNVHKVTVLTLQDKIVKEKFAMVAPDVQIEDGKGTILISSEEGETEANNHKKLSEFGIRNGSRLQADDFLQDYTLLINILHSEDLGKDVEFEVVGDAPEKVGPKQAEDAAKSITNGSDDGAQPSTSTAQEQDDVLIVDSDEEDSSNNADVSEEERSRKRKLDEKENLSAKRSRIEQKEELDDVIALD
T1 sequence (Q9UBE0 1-346 partner): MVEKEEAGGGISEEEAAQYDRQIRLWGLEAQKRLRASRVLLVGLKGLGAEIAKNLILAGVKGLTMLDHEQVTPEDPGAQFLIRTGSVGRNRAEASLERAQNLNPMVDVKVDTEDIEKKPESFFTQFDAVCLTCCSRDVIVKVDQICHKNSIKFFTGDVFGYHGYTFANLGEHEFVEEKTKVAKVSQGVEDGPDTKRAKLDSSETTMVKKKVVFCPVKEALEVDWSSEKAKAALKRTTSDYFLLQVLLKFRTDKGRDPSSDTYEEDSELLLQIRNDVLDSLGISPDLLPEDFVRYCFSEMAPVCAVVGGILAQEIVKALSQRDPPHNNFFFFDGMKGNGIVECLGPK
Assay: SAE HTRF Enzyme Assay
Format: biochemical
Conditions: for IC50: class symbols A-C; for Percent Inhibition / inhibition at 0.111 µM: compound concentration 0.111 μM; for Percent Inhibition: 0.111 µM; for inhibition at 0.111 µM: read-out: Percent Inhibition
Outline: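 HTRF signal from Eu-anti-Flag/APC-anti-GST pairs reports Sumo-Flag loaded onto Ubc9-GST by 0.11 nM SAE. Reaction: 0.5 μM ATP, 0.125 μM Sumo-Flag, 0.01 μM Ubc9-GST, 5 mM MgCl2, pH 7.5, 105 min, 24° C. Single-concentration % inhibition or IC50 reported.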

SMILES	IC50	Percent Inhibition	inhibition at 0.111 µM
CC(c1cccc(Cl)c1)n1ccc(C(=O)c2cncnc2N[C@@H]2C[C@H](COS(N)(=O)=O)[C@@H](O)C2)n1 (single isomer, unassigned) [Compound I-133, [(1R,2S,4R)-4-{[5-({1-[(1S)-1-(3-chlorophenyl)ethyl]-1H-pyrazol-3-yl}carbonyl)pyrimidin-4-yl]amino}-2-hydroxycyclopentyl]methyl sulfamate or [(1R,2S,4R)-4-{[5-({1-[(1R)-1-(3-chlorophenyl)ethyl]-1H-pyrazol-3-yl}carbonyl)pyrimidin-4-yl]amino}-2-hydroxycyclopentyl]methyl sulfamate]	10 to 100 nM	61%	
NS(=O)(=O)OC[C@H]1C[C@@H](Nc2ncncc2C(=O)c2nn(Cc3ccccc3)cc2Cl)[C@H](O)[C@@H]1O [Compound I-139, [(1R,2R,3S,4R)-4-({5-[(1-benzyl-4-chloro-1H-pyrazol-3-yl)carbonyl]pyrimidin-4-yl}amino)-2,3-dihydroxycyclopentyl]methyl sulfamate]	< 10 nM		86%
NS(=O)(=O)OC[C@H]1C[C@@H](Nc2ncncc2C(=O)c2ccn(Cc3cccc(Br)n3)n2)C[C@@H]1O [Compound I-352, [(1R,2S,4R)-4-{[5-({1-[(6-bromopyridin-2-yl)methyl]-1H-pyrazol-3-yl}carbonyl)pyrimidin-4-yl]amino}-2-hydroxycyclopentyl]methyl sulfamate]	< 10 nM		99%
NS(=O)(=O)OC[C@H]1C[C@@H](Nc2ncncc2C(=O)c2ccn(Cc3cc(F)cc(F)c3)n2)C[C@@H]1O [Compound I-260, {(1R,2S,4R)-4-[(5-{[1-(3,5-difluorobenzyl)-1H-pyrazol-3-yl]carbonyl}pyrimidin-4-yl)amino]-2-hydroxycyclopentyl}methyl sulfamate]	< 10 nM		91%
N#Cc1ccccc1Cn1ccc(C(=O)c2cncnc2N[C@@H]2C[C@H](COS(N)(=O)=O)[C@@H](O)C2)n1 [Compound I-253, {(1R,2S,4R)-4-[(5-{[1-(2-cyanobenzyl)-1H-pyrazol-3-yl]carbonyl)pyrimidin-4-yl)amino]-2-hydroxycyclopentyl}methyl sulfamate]	10 to 100 nM		91%
NS(=O)(=O)OC[C@H]1C[C@@H](Nc2ccncc2C(=O)c2ccn(Cc3cccc(OC(F)(F)F)c3)n2)C[C@@H]1O [Compound I-18, [(1R,2S,4R)-2-hydroxy-4-{[3({1-[3-(trifluoromethoxy)benzyl]-1H-pyrazol-3-yl}carbonyl)pyridin-4-yl]amino}cyclopentyl]methyl sulfamate]	< 10 nM		96%
CC(C)(C)C#CCn1ccc(C(=O)c2cncnc2N[C@@H]2C[C@H](COS(N)(=O)=O)[C@@H](O)C2)n1 [Compound I-113, {(1R,2S,4R)-4-[(5-{[1-(4,4-dimethylpent-2-yn-1-yl)-1H-pyrazol-3-yl]carbonyl}pyrimidin-4-yl)amino]-2-hydroxycyclopentyl}methyl sulfamate]	10 to 100 nM		81%
CCC(c1cccc(Br)c1)n1ccc(C(=O)c2cncnc2N[C@@H]2C[C@H](COS(N)(=O)=O)[C@@H](O)[C@@H]2F)c1 (single isomer, unassigned) [Compound I-356, [(1R,2R,3R,4R)-4-{[5-({1-[(1S)-1-(3-bromophenyl)propyl]-1H-pyrrol-3-yl}carbonyl)pyrimidin-4-yl]amino}-3-fluoro-2-hydroxycyclopentyl]methyl sulfamate or [(1R,2R,3R,4R)-4-{[5-({1-[(1R)-1-(3-bromophenyl)propyl]-1H-pyrrol-3-yl}carbonyl)pyrimidin-4-yl]amino}-3-fluoro-2-hydroxycyclopentyl]methyl sulfamate]	10 to 100 nM	85%	
NS(=O)(=O)OC[C@H]1C[C@@H](Nc2ncncc2C(=O)c2ccn(Cc3ccc(Cl)c(OC(F)(F)F)c3)n2)[C@@H](F)[C@@H]1O [Compound I-218, [(1R,2R,3R,4R)-4-{[5-({1-[4-chloro-3-(trifluoromethoxy)benzyl]-1H-pyrazol-3-yl}carbonyl)pyrimidin-4-yl]amino}-3-fluoro-2-hydroxycyclopentyl]methyl sulfamate]	10 to 100 nM		89%
CC1CC1Cn1ccc(C(=O)c2cncnc2N[C@@H]2C[C@H](COS(N)(=O)=O)[C@@H](O)C2)n1 (stereo partly drawn) [Compound I-55, [(1R,2S,4R)-hydroxy-4-{[5-({1-[((1S,2S)-2-methylcyclopropyl)methyl]-1H-pyrazol-3-yl}carbonyl)pyrimidin-4-yl]amino}cyclopentyl]methyl sulfamate and [(1R,2S,4R)-2-hydroxy-4-{[5-({1-[((1R,2R)-2-methylcyclopropyl)methyl]-1H-pyrazol-3-yl}carbonyl)pyrimidin-4-yl]amino}cyclopentyl]methyl sulfamate]	10 to 100 nM		58%
CC(c1cccc(Br)n1)n1ccc(C(=O)c2cncnc2N[C@@H]2C[C@H](COS(N)(=O)=O)[C@@H](O)C2)n1 (single isomer, unassigned) [Compound I-366, [(1R,2S,4R)-4-{[5-({1-[(1S)-1-(6-bromopyridin-2-yl)ethyl]-1H-pyrazol-3-yl}carbonyl)pyrimidin-4-yl]amino}-2-hydroxycyclopentyl]methyl sulfamate or [(1R,2S,4R)-4-{[5-({1-[(1R)-1-(6-bromopyridin-2-yl)ethyl]-1H-pyrazol-3-yl}carbonyl)pyrimidin-4-yl]amino}-2-hydroxycyclopentyl]methyl sulfamate]	10 to 100 nM		92%
NS(=O)(=O)OC[C@H]1C[C@@H](Nc2ncncc2C(=O)c2ccn(Cc3cc(Br)ccc3Cl)n2)[C@@H](F)[C@@H]1O [Compound I-207, {(1R,2R,3R,4R)-4-[(5-{[1-(5-bromo-2-chlorobenzyl)-1H-pyrazol-3-yl]carbonyl}pyrimidin-4-yl)amino]-3-fluoro-2-hydroxycyclopentyl}methyl sulfamate]	< 10 nM		99%
Cc1ccc(Cn2ccc(C(=O)c3cncnc3N[C@@H]3C[C@H](COS(N)(=O)=O)[C@@H](O)[C@@H]3F)c2)o1 [Compound I-277, [(1R,2R,3R,4R)-3-fluoro-2-hydroxy-4-{[5-({1-[(5-methyl-2-furyl)methyl]-1H-pyrrol-3-yl}carbonyl)pyrimidin-4-yl]amino}cyclopentyl]methyl sulfamate]	< 10 nM		99%
